Measured values reported in patent US20250092345A1, “INTER ORGAN PLATFORM FOR MICROPHYSIOLOGICAL SYSTEM ON A CHIP” (THE TRUSTEES OF COLUMBIA UNIVERSITY IN THE CITY OF NEW YORK, priority 2020, published 2025).

Columns and labels:
Assay type in all cases: cell-based, human
[1] = system: non-metastatic TE-ES (RD-ES); assay: Non-metastatic engineered ES bone tumor (TE-ES) in isolated culture, linsitinib
Description: (§1) The effects of linsitinib were studied in an experiment performed according to the 3-week treatment cycle used in the clinical trial (3 days of drug administration followed by 4 days without the drug, in 3 cycles), with luminescence signal serving as an indicator of cancer cell viability within the TE-ES.
(§2) Determining the effects of linsitinib on ES cells and osteoblasts within the engineered ES bone tumors across a 3-week clinical drug treatment regimen is shown in FIGS. 33A-33B. […] Supernatants were collected from each individual sample across the duration of the drug treatments and were analyzed for osteoblast function (OCN, OPN) and for cytotoxicity (LDH) (mean±s.e.m., n=3).
(§3) Two weeks following the initiation of osteogenic differentiation, aggregates of ES tumor cells were prepared as described previously, using 0.3×10^6 cells per aggregate. After 1 week of culture, corresponding to the end of bone tissue culture (3 weeks), the primary ES cell aggregates were placed into the engineered bone constructs (3 aggregates per construct, placed apart of each other). Tumor models were established for two different types of primary ES cells: non-metastatic (RD-ES) and metastatic (SK-N-MC). Tissue engineered RD-ES and SK-N-MC tumors were cultured in the RPMI and EMEM media, respectively, supplemented with 10% FBS and 1% penicillin/streptomycin. Bone constructs cultured without tumor cell aggregates (TE-bone) in RPMI and EMEM media were used as controls.
(§4) Specifically, linsitinib was dissolved at a 10 mM concentration in DMSO (Corning) and mixed in with the respective cell medium at a […] concentration unless otherwise noted. Vehicle treatments involved just the addition of DMSO at identical volumes as a control. Tissues were randomly assigned to experimental groups. Medium was changed every day.
To assess apoptosis, paraffin embedded tissue sections were first deparaffinized with CitriSolv, rehydrated with graded series of ethanol washes, and then stained with a Click-iT® TUNEL Alexa Fluor® imaging assay (Thermo Fisher Scientific). Following nuclear counterstaining with DAPI (Life Technologies), the TUNEL labelled slides were imaged with an IX81 inverted fluorescent microscope (Olympus) and a Pike F032B camera (ALLIED Vision), using NIS-Elements AR software, and processed using ImageJ (NIH). Four representative images per condition were then analyzed using the previously developed automatic TUNEL cell counter plugin for ImageJ to quantify DAPI^+ cells and TUNEL^+ cells.
(§5) Cell viability was analyzed using a previously established protocol. Cancer cell viability was measured for GFP-Luciferase labelled cancer cells using ONE-Glo luciferase substrate that was prepared according to manufacturer's protocol (Promega). Samples were collected following 3, 7, and 21 days cycles of linsitinib treatment. Where noted, longitudinal cell viability was also assessed using luminescence, though at the cost of signal strength. Briefly, in vivo grade VivoGlo™ Luciferin (Promega) was made at a 200× stock concentration (30 mg/ml) in water, added to sample culture media at a 1:200 dilution, and scanned using a spectrophotometer (Biotek). Some of the IC50 values were determined using cell viability data generated using an MTT assay (RealTime-Glo™ MT Cell Viability Assay, Promega) that were analyzed according to manufacturer's protocol.
Osteocalcin (OCN), osteopontin (OPN), and lactic acid dehydrogenase (LDH) secreted levels were all measured using a similar approach.

[2] = system: non-metastatic TE-ES bone tumor tissues; assay: Non-metastatic ES bone tumor in the integrated platform with microfluidic perfusion, linsitinib; conditions: 12 μM
Description: The TE-ES and cardiac tissues were then cultured in the integrated platform with perfusion of mixed media. Linsitinib was introduced into the reservoir and delivered to tissues via circulation of perfusate and diffusion into the tissues.
ES cells, when co-cultured with mesenchymal stem cells and exposed to physiological shear-stress in a perfusion bioreactor, can become resistant to IGF-1R inhibitors. Therefore, we evaluated the role of flow derived shear stress in this newly found resistance of non-metastatic TE-ES bone tumor tissues to the IGF-1R inhibitor linsitinib. Linsitinib was introduced into the platform (12 µM, 3 days), either via circulation or directly into the TE-ES tissue chamber (FIG. 34G), to distinguish effects of flow-derived stimuli from drug diffusion into the tissues.
Upon maturation, bone tumors in the platform were exposed to a 1:1 mixture of the bone tumor and cardiac tissue media, supplemented by 12 μM linsitinib in the treated groups. […]
as §5, with “Samples were collected following 3, 7, and 21 days cycles of linsitinib treatment.” left out, “Briefly, in vivo grade VivoGlo™ Luciferin (Promega) was made at a 200× stock concentration (30 mg/ml) in water, added to sample culture media at a 1:200 dilution, and scanned using a spectrophotometer (Biotek).” left out
In order to confirm linsitinib mechanism of action in ES cells, both RD-ES and SK-N-MC monolayers were treated with 12 μM linsitinib for 6 hours, lysed, measured for protein quantity using a Pierce™ BCA Protein Assay Kit (ThermoFisher), and loaded equally onto a Human Phospho-IGF1R ELISA (RayBiotech) to semi-quantitatively determine phosphorylated levels of the IGF-1 receptor, according to manufacturer's instructions. Osteocalcin (OCN), osteopontin (OPN), and lactic acid dehydrogenase (LDH) secreted levels were all measured using a similar approach. […]

[3] = system: non-metastatic and metastatic GFP-luciferase ES cell lines (RD-ES, SK-N-MC); assay: Luminescence viability of GFP-luciferase ES cell monolayers; conditions: 12 μM over 72 hours; both the non-metastatic and metastatic cell lines
Description: (§6) MTT viability assay was used to determine drug toxicity, with luminescence generated by viable cells measured at the endpoint (10^4 cells per well, mean±s.e.m., n=3). […] In order to determine cancer cell viability, cells were lysed and treated with luciferin using a Bright-Glo™ assay, with subsequent luminescence measured (10^4 cells per well, mean±s.e.m., n=3).
as §5

[4] = system: non-metastatic and metastatic ES cell lines (RD-ES, SK-N-MC); assay: MTT viability assay in ES cell monolayers; conditions: 0-100 μM over 72 hours
Description: as §6, §5

[5] = system: metastatic TE-ES (SK-N-MC); assay: Metastatic engineered ES bone tumor (TE-ES) in isolated culture, linsitinib; conditions: 12 μM
Description: as §1, §2, §3, §4, §5
Osteocalcin (OCN), osteopontin (OPN), and lactic acid dehydrogenase (LDH) secreted levels were all measured using a similar approach. […] LDH secretion was determined using a Lactate Dehydrogenase Assay Kit (Colorimetric; Abcam).

Structure (SMILES): C[C@]1(O)C[C@@H](c2nc(-c3ccc4ccc(-c5ccccc5)nc4c3)c3c(N)nccn32)C1 [linsitinib]
- response of cell viability (luminescence) to concentration ([1]; 0, 1.2, 12 and 120 μM, 72 hours): dose-dependent response
- apoptosis (TUNEL assay) ([1]; 12 μM): increases in apoptosis
- cell viability (luminescence) ([1]; 12 μM): significant reduction
- OCN secretion ([1]; 12 μM regimen, 1:1 mixed media): increased only slightly
- cancer cell population level maintained (luminescence) ([1]; 12 μM regimen, 1:1 mixed media): ~30 % of their starting population
- cytotoxicity (LDH secretion) ([1]; 12 μM, 3-week regimen): spiked in both models immediately following drug administration, but significantly more so in the responsive, non-metastatic ES model
- osteocalcin secretion ([1]; 12 μM, 3-week regimen): decreased
- cancer cell population (luminescence) across the clinical regimen ([1]; 12 μM, 21-day treatment regimen): initial decrease in cancer cell population in the non-metastatic model and this population appeared unable to continue expanding
- drug response (luminescence) ([1]; 12 μM, after 3 days): significant drug response
- osteopontin secretion ([1]; 12 μM, throughout the 21 days): significantly increased
- drug response of ES resistant-cell derived tumors (luminescence) ([1]; second 21-day 12 μM regimen on tumors from sorted resistant cells): significant initial drug response
- response to the drug (luminescence) ([2]; 3 days, directly into the tissue chamber (immediate exposure)): fast response
- drug response (luminescence) ([2]; 3 days, perfused integrated platform): insignificant drug response
- secretion of LDH, vehicle vs linsitinib treated ([2]; 72 hours, perfused integrated platform): no significant difference
- drug efficacy (luminescence viability) [3]: significant drug efficacy
- IC50 (MTT viability assay) [4]: two orders of magnitude lower than the effective plasma concentration observed in patients
- cytotoxicity (LDH secretion) ([5]; 3-week regimen): spiked
- osteocalcin secretion ([5]; 3-week regimen): decreased
- cancer cell population (luminescence) across the clinical regimen ([5]; 21-day treatment regimen): decrease in drug efficacy, as the cancer cell population continued to expand
- drug response (luminescence) ([5]; after 3 days): significant drug response
- osteopontin secretion ([5]; throughout the 21 days): decreased
